Measured values: ChEMBL document CHEMBL4373654, “Discovery of (aza)indole derivatives as novel respiratory syncytial virus fusion inhibitors” (Medchemcomm, 2019)
In brackets after ≈: the same amount, converted by molar mass. Activity calls are given as the source filed them. The calls are words filed in the database; no cut-off is given here.

Tests used:
[1] = test system: Respiratory syncytial virus; assay: Antiviral activity against Respiratory syncytial virus Long infected in HEp-2 cells assessed as reduction in virus induced cytopathic effect measured after 6 days by MTT assay; format: functional, organism-based; conditions: human respiratory syncytial virus, HEp-2, 144 h
[2] = Therapeutic index, ratio of CC50 for cytotoxicity against human Hep2 cells to EC50 for antiviral activity against Respiratory syncytial virus Long infected in HEp-2 cells; format: toxicity, cell-based; conditions: read-out: Ratio CC50/EC50
[3] = Cytotoxicity against human Hep2 cells assessed as reduction in cell viability after 6 days by MTT assay; format: cell-based; conditions: HEp-2 cells
[4] = test system: Respiratory syncytial virus; assay: Inhibition of Respiratory syncytial virus Long F protein expressed in Flp-In T-REx 293 cells assessed as reduction in syncytia formation at 10 nM after 3 days by microscopic analysis relative to control; format: cell-based
[5] = test system: Respiratory syncytial virus; assay: Inhibition of Respiratory syncytial virus Long F protein expressed in Flp-In T-REx 293 cells assessed as syncytia formation at 1 nM after 3 days by microscopic analysis; format: cell-based
[6] = Volume of distribution at steady state in ICR mouse at 5 mg/kg, iv administered as single dose; format: ADME, organism-based; conditions: in vivo, read-out: Vdss
[7] = AUC in ICR mouse at 25 mg/kg, po administered as single dose; format: ADME, organism-based; conditions: in vivo
[8] = Solubility of compound by LYSA assay; format: physicochemical
[9] = Oral bioavailability in ICR mouse at 25 mg/kg administered as single dose; format: ADME, organism-based; conditions: in vivo
[10] = Clearance in ICR mouse at 5 mg/kg, iv or 25 mg/kg, po administered as single dose; format: ADME, organism-based; conditions: in vivo
[11] = Half life in ICR mouse at 25 mg/kg, po administered as single dose; format: ADME, organism-based; conditions: in vivo
[12] = test system: Respiratory syncytial virus; assay: Inhibition of Respiratory syncytial virus Long F protein expressed in Flp-In T-REx 293 cells assessed as cell-cell fusion at 1 nM after 3 days by microscopic analysis; format: cell-based
[13] = Half life in ICR mouse at 10 mg/kg, po administered as single dose; format: ADME, organism-based; conditions: in vivo
[14] = Clearance in ICR mouse at 2 mg/kg, iv or 10 mg/kg, po administered as single dose; format: ADME, organism-based; conditions: in vivo
[15] = Oral bioavailability in ICR mouse at 10 mg/kg administered as single dose; format: ADME, organism-based; conditions: in vivo
[16] = Volume of distribution at steady state in ICR mouse at 2 mg/kg, iv administered as single dose; format: ADME, organism-based; conditions: in vivo, read-out: Vdss
[17] = AUC in ICR mouse at 10 mg/kg, po administered as single dose; format: ADME, organism-based; conditions: in vivo

Compound	EC50 [1]	selectivity ratio [2]	CC50 at 144 h [3]	further results
CS(=O)(=O)CCn1c(CN2C(=O)C3(CC3)c3cccnc32)cc2cc(Cl)ccc21	170 nM	> 588	> 100 µM	–
CCc1cccc2c1cc(CN1C(=O)C3(CC3)c3ccncc31)n2CCS(C)(=O)=O	220 nM	395	86.8 µM	–
CS(=O)(=O)CCn1c(CN2C(=O)C3(CC3)c3ccncc32)cc2c(C(F)(F)F)cccc21	560 nM	> 179	> 100 µM	–
CS(=O)(=O)CCn1c(CN2C(=O)C3(CC3)c3ccncc32)cc2nc(Cl)ccc21	63 nM	1180	74.5 µM	–
CS(=O)(=O)CCn1c(CN2C(=O)C3(CC3)c3ccncc32)cc2ccc(Cl)cc21	4830 nM	12	59.7 µM	–
O=C1N(Cc2cc3cc(Cl)ccc3n2[C@@H]2CCS(=O)(=O)C2)c2cnccc2C12CC2	2 nM	18600	37.1 µM	inhibition [4]: 100%; inhibition [5]: inactive; Vd [6]: 2.35 L/kg; AUC [7]: 3360 µg/L/h; solubility [8]: 2 µg/mL (≈ 4.53 µM); bioavailability [9]: 24.5%; clearance [10]: 30.2 mL/min/kg; half-life [11]: 182 min; inhibition [12]: inactive
CS(=O)(=O)CCn1c(CN2C(=O)C3(CC3)c3ccncc32)cc2c(C#N)cccc21	940 nM	> 106	> 100 µM	–
O=C1N(Cc2cc3cc(Cl)ccc3n2[C@H]2CCS(=O)(=O)C2)c2cnccc2C12CC2	9 nM	4720	42.5 µM	–
CS(=O)(=O)CCn1c(CN2C(=O)C3(CC3)c3cnccc32)cc2cc(Cl)ccc21	200 nM	484	96.8 µM	–
CS(=O)(=O)CCn1c(CN2C(=O)C3(CC3)c3ccncc32)cc2cc(Cl)ncc21	330 nM	300	98.9 µM	–
CS(=O)(=O)CCn1c(CN2C(=O)C3(CC3)c3ccncc32)cc2cc(Cl)ccc21	18 nM	3740	67.4 µM	Vd [6]: 1.38 L/kg; AUC [7]: 1550 µg/L/h; solubility [8]: 17 µg/mL (≈ 39.5 µM); clearance [10]: 54.2 mL/min/kg; half-life [11]: 38.4 min
CS(=O)(=O)CCc1c(Cn2c(=O)n(C3CC3)c3ccncc32)nc2cc(Cl)ccn12	–	–	–	half-life [13]: 104 min; clearance [14]: 93.3 mL/min/kg; bioavailability [15]: 16.9%; Vd [16]: 1.29 L/kg; AUC [17]: 315 µg/L/h
CS(=O)(=O)CCn1c(CN2C(=O)C3(CC3)c3ccncc32)cc2cc(Cl)cnc21	26 nM	1600	41.7 µM	Vd [6]: 0.845 L/kg; AUC [7]: 10200 µg/L/h; solubility [8]: 5 µg/mL (≈ 11.6 µM); clearance [10]: 23.7 mL/min/kg; half-life [11]: 42 min
CS(=O)(=O)CCn1c(CN2C(=O)C3(CC3)c3ccncc32)cc2c(F)cccc21	190 nM	> 526	> 100 µM	–
CS(=O)(=O)CCCn1c(CN2C(=O)C3(CC3)c3ccncc32)cc2cc(Cl)ccc21	3 nM	12900	38.6 µM	–
C[S+]([O-])CCCn1c(CN2C(=O)C3(CC3)c3ccncc32)cc2cc(Cl)ccc21 (configuration not stated)	9 nM	10200	92.1 µM	–
COc1cccc2c1cc(CN1C(=O)C3(CC3)c3ccncc31)n2CCS(C)(=O)=O	74 nM	> 1350	> 100 µM	–
CCS(=O)(=O)CCCn1c(CN2C(=O)C3(CC3)c3ccncc32)cc2cc(Cl)ccc21	3 nM	17100	51.2 µM	–
Cc1cccc2c1cc(CN1C(=O)C3(CC3)c3ccncc31)n2CCS(C)(=O)=O	9 nM	6840	61.6 µM	–
CS(=O)(=O)CCn1c(CN2C(=O)C3(CC3)c3ccncc32)cc2ccccc21	220 nM	352	77.5 µM	–
CS(=O)(=O)CCn1c(CN2C(=O)C3(CC3)c3ccncc32)cc2c(Cl)cccc21	1670 nM	> 60	> 100 µM	–
CS(=O)(=O)CCn1c(CN2C(=O)C3(CC3)c3ccncc32)cc2c(Br)cccc21	14 nM	3560	49.9 µM	–
CCS(=O)(=O)CCn1c(CN2C(=O)C3(CC3)c3ccncc32)cc2cc(Cl)ccc21	8 nM	> 12500	> 100 µM	–
CS(=O)(=O)CCn1c(CN2C(=O)C3(CC3)c3ccncc32)cc2cccc(Cl)c21	160 nM	543	86.9 µM	–
CS(=O)(=O)CCCCn1c(CN2C(=O)C3(CC3)c3ccncc32)cc2cc(Cl)ccc21	6 nM	> 16700	> 100 µM	–
CS(=N)(=O)CCCn1c(CN2C(=O)C3(CC3)c3ccncc32)cc2cc(Cl)ccc21 (configuration not stated)	6 nM	11400	68.3 µM	–
CS(=N)(=O)CCn1c(CN2C(=O)C3(CC3)c3ccncc32)cc2cc(Cl)ccc21 (configuration not stated)	7 nM	11200	78.3 µM	–
